# Measured values reported in patent US20220324865A1 (Bayer Aktiengesellschaft, priority 2018, published 2022).
# Target: T1, human EP3 receptor (Homo sapiens, UniProt P43115)
# T1 construct: expressed in transfected cells; host or cells: CHO K1 (Chinese Hamster Ovary), stably co-transfected with Galpha16 and mitochondrial clytin
# T1 sequence (P43115 1-390): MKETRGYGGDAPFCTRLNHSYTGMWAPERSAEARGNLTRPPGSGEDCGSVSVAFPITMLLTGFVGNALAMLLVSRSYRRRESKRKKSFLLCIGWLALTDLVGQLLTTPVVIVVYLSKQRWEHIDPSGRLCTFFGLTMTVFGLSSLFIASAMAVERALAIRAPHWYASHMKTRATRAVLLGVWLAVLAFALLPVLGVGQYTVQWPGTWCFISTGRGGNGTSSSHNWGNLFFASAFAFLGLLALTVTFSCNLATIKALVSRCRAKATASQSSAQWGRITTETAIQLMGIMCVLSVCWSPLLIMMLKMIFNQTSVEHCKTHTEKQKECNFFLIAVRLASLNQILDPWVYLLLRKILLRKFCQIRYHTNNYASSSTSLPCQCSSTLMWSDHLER
# Experiment: Cellular in vitro assay for determining EP3 receptor activity (human EP3 cell line, sulprostone-stimulated calcium luminescence)
# Format: cell-based
# Conditions: CHO cells expressing human EP3 and mitochondrial Clytin; antagonist mode, sulprostone at EC50; read-out: EP3 CHO mtCLY ANTAG IC50
# How it was run: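 CHO K1 cells stably expressing human EP3 with Gα16 and mitochondrial Clytin, loaded overnight with coelenterazine. Compounds added 10 min before sulprostone at its EC50; antagonism read immediately as reduced calcium-driven luminescence, quadruplicate points.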
row,Structure (SMILES),IC50 [nM]
1,Cc1ccc(-c2cn3nc(C(=O)N[C@@H](C)c4ccc(F)cc4)cc3c(=O)[nH]2)cc1Cl [6-82],1.8
2,C[C@H](NC(=O)c1cc2c(=O)[nH]c(-c3ccc4c(c3)N(C)CCO4)cn2n1)c1ccc(F)cc1 [6-83],3.55
3,NC(=O)[C@H](NC(=O)c1cc2c(=O)[nH]c(-c3ccc4ccccc4c3)cn2n1)c1ccccc1 [6-84],5.4
4,COc1ccc(CCNC(=O)c2nn3cc(-c4ccc5ccccc5c4)[nH]c(=O)c3c2C(C)C)cc1OC [6-85],0.887
5,COc1ccc(CCNC(=O)c2cc3c(=O)[nH]c(-c4ccc5c(c4)N(C)CCO5)cn3n2)cc1OC [6-86],1.95
6,CCn1cc(CNC(=O)c2nn3cc(-c4ccc(C)c(C)c4)[nH]c(=O)c3c2Cl)c(C)n1 [6-112],1.14
7,CC[C@@H](C)NC(=O)c1nn2cc(-c3ccc(C)c(C)c3)[nH]c(=O)c2c1C(F)(F)F [6-113],3.4
8,Cc1ccc(-c2cn3nc(C(=O)N[C@H](C)C(C)C)c(C(F)(F)F)c3c(=O)[nH]2)cc1C [6-114],3.15
9,Cc1ccc(-c2cn3nc(C(=O)N[C@@H](C)C4CC4)c(C(F)(F)F)c3c(=O)[nH]2)cc1C [6-119],1.09
10,Cc1ccc(-c2cn3nc(C(=O)N[C@H](C)C4CC4)c(C(F)(F)F)c3c(=O)[nH]2)cc1C [6-120],0.78
11,Cc1ccc(-c2cn3nc(C(=O)N[C@H](CCO)c4ccc(F)cc4)cc3c(=O)[nH]2)cc1Cl [6-122],0.88
12,Cc1ccc(-c2cn3nc(C(=O)NC4(c5ccc(F)cc5)CN(C)C4)cc3c(=O)[nH]2)cc1Cl [6-123],5.63
13,Cc1cc(-c2cn3nc(C(=O)NCCN(CC(F)F)C4CC4)c(C4CC4)c3c(=O)[nH]2)ccc1C(F)(F)F [6-128],9.25
14,Cc1ccc(-c2cn3nc(C(=O)Nc4cccc(O)c4)c(C(F)(F)F)c3c(=O)[nH]2)cc1F [6-144],3.5
15,Cc1ccc(-c2cn3nc(C(=O)NC4(C)CCC4)c(C(F)(F)F)c3c(=O)[nH]2)cc1F [6-146],10
16,Cc1ccc(-c2cn3nc(C(=O)NCCC(F)(F)F)c(C(F)(F)F)c3c(=O)[nH]2)cc1F [6-148],8.4

row,Structure (SMILES),IC50 [nM]
1,Cc1ccc(-c2cn3nc(C(=O)NCCN(CC(F)F)C4CC4)c(C(F)(F)F)c3c(=O)[nH]2)cc1Cl [6-152],4.75
2,Cc1ccc(-c2cn3nc(C(=O)N[C@@H](C)C4CC4)c(C(F)(F)F)c3c(=O)[nH]2)cc1Cl [6-164],1.04
3,Cc1ccc(-c2cn3nc(C(=O)NCCNCC(F)F)c(C(F)(F)F)c3c(=O)[nH]2)cc1Cl [6-165],9.75
4,COC[C@@H](NC(=O)c1nn2cc(-c3ccc(C)c(Cl)c3)[nH]c(=O)c2c1C(F)(F)F)c1ccccc1 [6-177],0.67
5,Cc1ccc(-c2cn3nc(C(=O)N[C@H]4c5ccccc5C[C@H]4O)c(C(F)(F)F)c3c(=O)[nH]2)cc1Cl [6-185],2.35
6,Cc1ccc(-c2cn3nc(C(=O)N[C@H]4CCOC4)c(C(F)(F)F)c3c(=O)[nH]2)cc1Cl [6-186],5.35
7,Cc1ccc(-c2cn3nc(C(=O)N[C@@H](C)C(C)C)c(C(F)(F)F)c3c(=O)[nH]2)cc1Cl [6-187],1.45
8,Cc1ccc(-c2cn3nc(C(=O)N[C@H](C)C(C)C)c(C(F)(F)F)c3c(=O)[nH]2)cc1Cl [6-189],1.35
9,CC[C@H](C)NC(=O)c1nn2cc(-c3ccc(C)c(Cl)c3)[nH]c(=O)c2c1C(F)(F)F [6-190],2.25
10,Cc1ccc(-c2cn3nc(C(=O)NC(C)(C)C4CC4)c(C(F)(F)F)c3c(=O)[nH]2)cc1Cl [6-191],0.97
11,Cc1ccc(-c2cn3nc(C(=O)N[C@H](C)C(C)(C)C)c(C(F)(F)F)c3c(=O)[nH]2)cc1Cl [6-192],3.03
12,COc1ccc(C2(NC(=O)c3nn4cc(-c5ccc(Cl)c(C)c5)[nH]c(=O)c4c3C(F)(F)F)CN(C)C2)cc1 [6-213],3.15
13,Cc1cc(-c2cn3nc(C(=O)N[C@@H](C)C(C)C)c(C(F)(F)F)c3c(=O)[nH]2)ccc1Cl [6-215],2.7
14,CC[C@H](C)NC(=O)c1nn2cc(-c3ccc(Cl)c(C)c3)[nH]c(=O)c2c1C(F)(F)F [6-216],5.2
15,Cc1cc(-c2cn3nc(C(=O)N[C@H](C)C(C)C)c(C(F)(F)F)c3c(=O)[nH]2)ccc1Cl [6-217],1.95

# More lines, now with the values ahead:
row,IC50 [nM],Structure (SMILES)
1,0.93,COc1ccc([C@@H](C)NC(=O)c2nn3cc(-c4ccc(Cl)c(F)c4)[nH]c(=O)c3c2C2CC2)cn1 [6-87]
2,4.55,O=C(NCC(O)(C(F)(F)F)C(F)(F)F)c1nn2cc(-c3ccc(Cl)c(F)c3)[nH]c(=O)c2c1C1CC1 [6-88]
3,1.73,O=C(N[C@@H](c1ccc(F)cc1)C(F)(F)CO)c1nn2cc(-c3ccc(Cl)c(F)c3)[nH]c(=O)c2c1C1CC1 [6-95]
4,0.74,O=C(NC1(c2ccc(F)cc2)CN(CC(F)(F)F)C1)c1nn2cc(-c3ccc(Cl)c(F)c3)[nH]c(=O)c2c1C1CC1 [6-103]
5,1.25,O=C(NC1(c2ccc(F)cc2)CN(C2CC2)C1)c1nn2cc(-c3ccc(Cl)c(F)c3)[nH]c(=O)c2c1C1CC1 [6-104]
6,0.61,O=C(N[C@H](CN1CCOCC1)c1ccc(F)cc1)c1nn2cc(-c3ccc(Cl)c(F)c3)[nH]c(=O)c2c1C1CC1 [6-106]
7,1.3,O=C(NC1(c2ccc(F)cc2)CN(CC(F)F)C1)c1nn2cc(-c3ccc(Cl)c(F)c3)[nH]c(=O)c2c1C1CC1 [6-108]
8,4,CC(C)(O)[C@@H](NC(=O)c1nn2cc(-c3ccc4ccccc4c3)[nH]c(=O)c2c1C#N)c1ccc(F)cc1 [6-110]
9,8.6,Cc1cc(-c2cn3nc(C(=O)N[C@H](c4ccc(F)cc4)C(C)(C)O)c(C4CC4)c3c(=O)[nH]2)ccc1C(F)(F)F [6-134]
10,2.55,COC[C@@H](NC(=O)c1nn2cc(-c3ccc(C(F)(F)F)c(C)c3)[nH]c(=O)c2c1C1CC1)c1ccccc1 [6-135]
11,7.5,COC[C@@H](C)NC(=O)c1nn2cc(-c3ccc(C(F)(F)F)c(C)c3)[nH]c(=O)c2c1C1CC1 [6-136]
12,1.4,COC[C@H](NC(=O)c1nn2cc(-c3ccc(C(F)(F)F)c(C)c3)[nH]c(=O)c2c1C1CC1)c1ccccc1 [6-137]
13,2.23,Cc1ccc(-c2cn3nc(C(=O)N[C@@H](c4ccc(F)cc4)C(F)(F)CO)c(C(F)(F)F)c3c(=O)[nH]2)cc1F [6-141]
14,4.35,Cc1ccc(-c2cn3nc(C(=O)N[C@@H](c4ccccc4)C(C)(C)O)c(C(F)(F)F)c3c(=O)[nH]2)cc1F [6-143]
15,0.92,Cc1ccc(-c2cn3nc(C(=O)N[C@@H](c4ccc(F)cc4)C(F)(F)CO)c(C(F)(F)F)c3c(=O)[nH]2)cc1Cl [6-157]
16,1.7,Cc1ccc(-c2cn3nc(C(=O)N[C@H](C)C4CC4)c(C(F)(F)F)c3c(=O)[nH]2)cc1Cl [6-172]
17,0.29,Cc1ccc(-c2cn3nc(C(=O)N[C@H](CCO)c4ccc(F)cc4)c(C(F)(F)F)c3c(=O)[nH]2)cc1Cl [6-196]
18,3.05,Cc1ccc(-c2cn3nc(C(=O)NC4(c5ccc(F)cc5)CN(CC(F)(F)F)C4)c(C(F)(F)F)c3c(=O)[nH]2)cc1Cl [6-201]
19,0.97,Cc1ccc(-c2cn3nc(C(=O)NC4(c5ccc(F)cc5)CN(CC(F)F)C4)c(C(F)(F)F)c3c(=O)[nH]2)cc1Cl [6-202]
20,1.5,Cc1ccc(-c2cn3nc(C(=O)NC4(c5ccc(F)cc5)CN(C5CC5)C4)c(C(F)(F)F)c3c(=O)[nH]2)cc1Cl [6-203]
21,4.35,Cc1cc(-c2cn3nc(C(=O)NC4(c5ccc(F)cc5)CN(C)C4)c(C(F)(F)F)c3c(=O)[nH]2)ccc1Cl [6-207]
22,1.35,Cc1cc(-c2cn3nc(C(=O)N[C@@H](C)C4CC4)c(C(F)(F)F)c3c(=O)[nH]2)ccc1Cl [6-214]
